Measured values reported in US4281121A, “1,3,4-Thiadiazole-2-carboxylic acid derivatives, process for making the same and fungicidal and nematocidal compositions containing same” (Schering Aktiengesellschaft, priority 1978, dated 1981).

These compounds were tested on Plasmopara viticola (assay: Prophylactic leaf treatment of grapevines in the hothouse against Plasmopara viticola). Conditions: concentration of active agent 0.025 (unit not given).
Type: in vivo
Method in brief: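 Grapevines (5–8 leaves) sprayed to runoff with compound as 20% spray powder, then after drying inoculated on leaf undersides with sporangial suspension (~20,000/ml). Incubated at 22–24 °C, saturated humidity, 3–4 days normal humidity (30–70%), then one day saturated; activity from mean % infested leaf area per treatment.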

For `CCCNC(=O)c1nnc(S(=O)(=O)CCC)s1` [5-propylsulfonyl-1,3,4-thiadiazole-2-carboxylic acid-propylamide], the “% activity” value was 93%.

What follows are compounds tested on Helminthosporium gram (assay: not given). Conditions: 50 g active agent per 100 kg; about 5 weeks.

First: CCS(=O)(=O)c1nnc(C(=O)NC2CCCCCCC2)s1 [5-ethylsulfonyl-1,3,4-thiadiazole-2-carboxylic acid-cyclooctylamide]
Second: CCC[S+]([O-])c1nnc(C(=O)N(C)C)s1 (stereo not drawn) [5-propylsulfinyl-1,3,4-thiadiazole-2-carboxylic acid-dimethylamide]
The “% activity” value of the first is lower: 98% for the first, 100% for the second.

These compounds were tested on Fusarium avenaceum (assay: Threshold concentration test in case of Fusarium avenaceum (infested soil, garden peas)). Conditions: 25 mg/l soil; 20 grains per dish; 18 days at 20-24° C.
Type: in vivo
Method in brief: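 Soil heavily infested with Fusarium avenaceum was mixed uniformly with a 20% powder formulation of active agent, then sown immediately with 20 garden pea seeds ('Wunder von Kelvedon') per dish. After 18 days in a greenhouse at 20° to 24° C., sound plants were counted and roots scored on a 1–4 scale.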

Going from `CCCCCS(=O)(=O)c1nnc(C(N)=O)s1` [5-pentylsulfonyl-1,3,4-thiadiazole-2-carboxamide] to `CCCS(=O)(=O)c1nnc(C(=O)N2CCC2)s1` [5-propylsulfonyl-1,3,4-thiadiazole-2-carboxylic acid-N,N-trimethyleneamide], the “number of sound peas” value rises from 9 to 11.

Same assay, conditions: 25 mg/l soil; 18 days

`CCCCCS(=O)(=O)c1nnc(C(N)=O)s1` [5-pentylsulfonyl-1,3,4-thiadiazole-2-carboxamide] and `CCCS(=O)(=O)c1nnc(C(=O)N2CCC2)s1` [5-propylsulfonyl-1,3,4-thiadiazole-2-carboxylic acid-N,N-trimethyleneamide] are the same in “root evaluation (1-4)” value: 2 for the first, 2 for the second.

Same assay, conditions: 50 mg/l soil; 20 grains per dish; 18 days at 20-24° C.

First: CCCCCS(=O)(=O)c1nnc(C(N)=O)s1 [5-pentylsulfonyl-1,3,4-thiadiazole-2-carboxamide]
Second: CCCS(=O)(=O)c1nnc(C(=O)N2CCC2)s1 [5-propylsulfonyl-1,3,4-thiadiazole-2-carboxylic acid-N,N-trimethyleneamide]
The “number of sound peas” value of the first is lower: 16 for the first, 17 for the second.

Same assay, conditions: 50 mg/l soil; 18 days

`CCCCCS(=O)(=O)c1nnc(C(N)=O)s1` [5-pentylsulfonyl-1,3,4-thiadiazole-2-carboxamide] and `CCCS(=O)(=O)c1nnc(C(=O)N2CCC2)s1` [5-propylsulfonyl-1,3,4-thiadiazole-2-carboxylic acid-N,N-trimethyleneamide] are the same in “root evaluation (1-4)” value: 3 for the first, 3 for the second.

Same assay, conditions: 100 mg/l soil; 20 grains per dish; 18 days at 20-24° C.

Going from `CCCCCS(=O)(=O)c1nnc(C(N)=O)s1` [5-pentylsulfonyl-1,3,4-thiadiazole-2-carboxamide] to `CCCS(=O)(=O)c1nnc(C(=O)N2CCC2)s1` [5-propylsulfonyl-1,3,4-thiadiazole-2-carboxylic acid-N,N-trimethyleneamide], the “number of sound peas” value falls from 18 to 17.

Same assay, conditions: 100 mg/l soil; 18 days

Going from `CCCCCS(=O)(=O)c1nnc(C(N)=O)s1` [5-pentylsulfonyl-1,3,4-thiadiazole-2-carboxamide] to `CCCS(=O)(=O)c1nnc(C(=O)N2CCC2)s1` [5-propylsulfonyl-1,3,4-thiadiazole-2-carboxylic acid-N,N-trimethyleneamide], the “root evaluation (1-4)” value falls from 4 to 3.

The compounds below were run on Pythium ultimum (assay: Threshold concentration test for use of the compounds against Pythium ultimum (infested soil, garden peas)). Conditions: 20 mg/l soil; 3 weeks.
Type: in vivo
Parameters: key to root evaluation (1-4): 4: white roots without fungous necrosis; 3: white roots, minor fungous necrosis; 2: brown roots, already more pronounced fungous necrosis; 1: heavy fungous necrosis, roots rotted
Method in brief: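 Pulverulent agents at 20% concentration mixed evenly into soil heavily infested with Pythium ultimum, then garden peas ('Wunder von Kelvedon', 20 per dish) sown at once. After three weeks at 20–24 °C in a hothouse, sound peas counted and roots scored on a 1–4 scale.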

`CCC[S+]([O-])c1nnc(C(=O)N(C)C)s1` (stereo not drawn) [5-propylsulfinyl-1,3,4-thiadiazole-2-carboxylic acid-dimethylamide] and `CCCNC(=O)c1nnc(S(=O)(=O)CCC)s1` [5-propylsulfonyl-1,3,4-thiadiazole-2-carboxylic acid-propylamide] are the same in “root evaluation (1-4)” value: 1 for the first, 1 for the second.

With `CCCS(=O)(=O)c1nnc(C(=O)N2CCC2)s1` [5-propylsulfonyl-1,3,4-thiadiazole-2-carboxylic acid-N,N-trimethyleneamide] the “root evaluation (1-4)” value was 1.

Same assay, conditions: 20 mg/l soil; 20 grains per dish; 3 weeks at 20-24° C.

First: CCC[S+]([O-])c1nnc(C(=O)N(C)C)s1 (stereo not drawn) [5-propylsulfinyl-1,3,4-thiadiazole-2-carboxylic acid-dimethylamide]
Second: CCCNC(=O)c1nnc(S(=O)(=O)CCC)s1 [5-propylsulfonyl-1,3,4-thiadiazole-2-carboxylic acid-propylamide]
The “number of sound peas” value of the first is higher: 12 for the first, 10 for the second.

With `CCCS(=O)(=O)c1nnc(C(=O)N2CCC2)s1` [5-propylsulfonyl-1,3,4-thiadiazole-2-carboxylic acid-N,N-trimethyleneamide] the “number of sound peas” value was 6.

Same assay, conditions: 40 mg/l soil; 3 weeks

`CCC[S+]([O-])c1nnc(C(=O)N(C)C)s1` (stereo not drawn) [5-propylsulfinyl-1,3,4-thiadiazole-2-carboxylic acid-dimethylamide] and `CCCNC(=O)c1nnc(S(=O)(=O)CCC)s1` [5-propylsulfonyl-1,3,4-thiadiazole-2-carboxylic acid-propylamide] are the same in “root evaluation (1-4)” value: 4 for the first, 4 for the second.

With `CCCS(=O)(=O)c1nnc(C(=O)N2CCC2)s1` [5-propylsulfonyl-1,3,4-thiadiazole-2-carboxylic acid-N,N-trimethyleneamide] the “root evaluation (1-4)” value was 4.

Same assay, conditions: 40 mg/l soil; 20 grains per dish; 3 weeks at 20-24° C.

Compared with `CCC[S+]([O-])c1nnc(C(=O)N(C)C)s1` (stereo not drawn) [5-propylsulfinyl-1,3,4-thiadiazole-2-carboxylic acid-dimethylamide], `CCCNC(=O)c1nnc(S(=O)(=O)CCC)s1` [5-propylsulfonyl-1,3,4-thiadiazole-2-carboxylic acid-propylamide] is lower in “number of sound peas” value: 18 for the first, 16 for the second.

For `CCCS(=O)(=O)c1nnc(C(=O)N2CCC2)s1` [5-propylsulfonyl-1,3,4-thiadiazole-2-carboxylic acid-N,N-trimethyleneamide], the “number of sound peas” value was 19.

Same assay, conditions: 80 mg/l soil; 3 weeks

`CCC[S+]([O-])c1nnc(C(=O)N(C)C)s1` (stereo not drawn) [5-propylsulfinyl-1,3,4-thiadiazole-2-carboxylic acid-dimethylamide] and `CCCNC(=O)c1nnc(S(=O)(=O)CCC)s1` [5-propylsulfonyl-1,3,4-thiadiazole-2-carboxylic acid-propylamide] are the same in “root evaluation (1-4)” value: 4 for the first, 4 for the second.

For `CCCS(=O)(=O)c1nnc(C(=O)N2CCC2)s1` [5-propylsulfonyl-1,3,4-thiadiazole-2-carboxylic acid-N,N-trimethyleneamide], the “root evaluation (1-4)” value was 4.

Same assay, conditions: 80 mg/l soil; 20 grains per dish; 3 weeks at 20-24° C.

First: CCC[S+]([O-])c1nnc(C(=O)N(C)C)s1 (stereo not drawn) [5-propylsulfinyl-1,3,4-thiadiazole-2-carboxylic acid-dimethylamide]
Second: CCCNC(=O)c1nnc(S(=O)(=O)CCC)s1 [5-propylsulfonyl-1,3,4-thiadiazole-2-carboxylic acid-propylamide]
The “number of sound peas” value of the first is higher: 19 for the first, 16 for the second.

For `CCCS(=O)(=O)c1nnc(C(=O)N2CCC2)s1` [5-propylsulfonyl-1,3,4-thiadiazole-2-carboxylic acid-N,N-trimethyleneamide], the “number of sound peas” value was 18.

The compounds below were run on Tilletia caries (assay: Treatment of oat seeds infested with Tilletia caries (spore germination)). Conditions: 10 g active agent per 100 kg.
Type: in vivo

First: CCS(=O)(=O)c1nnc(C(=O)NC2CCCCCCC2)s1 [5-ethylsulfonyl-1,3,4-thiadiazole-2-carboxylic acid-cyclooctylamide]
Second: CCCNC(=O)c1nnc(S(=O)(=O)CCC)s1 [5-propylsulfonyl-1,3,4-thiadiazole-2-carboxylic acid-propylamide]
The “% activity” value of the first is higher: 100% for the first, 99.5% for the second.

Same assay, conditions: 20 g active agent per 100 kg

Compared with `CCS(=O)(=O)c1nnc(C(=O)NC2CCCCCCC2)s1` [5-ethylsulfonyl-1,3,4-thiadiazole-2-carboxylic acid-cyclooctylamide], `CCCNC(=O)c1nnc(S(=O)(=O)CCC)s1` [5-propylsulfonyl-1,3,4-thiadiazole-2-carboxylic acid-propylamide] is lower in “% activity” value: 100% for the first, 99.7% for the second.

In the case of `CCC[S+]([O-])c1nnc(C(=O)N(C)C)s1` (stereo not drawn) [5-propylsulfinyl-1,3,4-thiadiazole-2-carboxylic acid-dimethylamide], the “% activity” value is reported as 100%.

Same assay, conditions: 50 g active agent per 100 kg

`CCS(=O)(=O)c1nnc(C(=O)NC2CCCCCCC2)s1` [5-ethylsulfonyl-1,3,4-thiadiazole-2-carboxylic acid-cyclooctylamide] and `CCCS(=O)(=O)c1nnc(C(=O)N2CCC2)s1` [5-propylsulfonyl-1,3,4-thiadiazole-2-carboxylic acid-N,N-trimethyleneamide] are the same in “% activity” value: 100% for the first, 100% for the second.

Compared with `CCCCCS(=O)(=O)c1nnc(C(N)=O)s1` [5-pentylsulfonyl-1,3,4-thiadiazole-2-carboxamide], `CCCNC(=O)c1nnc(S(=O)(=O)CCC)s1` [5-propylsulfonyl-1,3,4-thiadiazole-2-carboxylic acid-propylamide] is higher in “% activity” value: 80% for the first, 100% for the second.

In the case of `CCC[S+]([O-])c1nnc(C(=O)N(C)C)s1` (stereo not drawn) [5-propylsulfinyl-1,3,4-thiadiazole-2-carboxylic acid-dimethylamide], the “% activity” value is reported as 100%.

The compounds below were run on Botrytis cinerea (assay: Prophylactic leaf treatment of tomato plants against Botrytis cinerea). Conditions: concentration of 0.025 of the active agent (unit not given).
Type: in vivo

Compared with `CCS(=O)(=O)c1nnc(C(=O)NC2CCCCCCC2)s1` [5-ethylsulfonyl-1,3,4-thiadiazole-2-carboxylic acid-cyclooctylamide], `CCCS(=O)(=O)c1nnc(C(=O)N2CCC2)s1` [5-propylsulfonyl-1,3,4-thiadiazole-2-carboxylic acid-N,N-trimethyleneamide] is lower in “% activity” value: 93% for the first, 87% for the second.

First: CCCCCS(=O)(=O)c1nnc(C(N)=O)s1 [5-pentylsulfonyl-1,3,4-thiadiazole-2-carboxamide]
Second: CCCNC(=O)c1nnc(S(=O)(=O)CCC)s1 [5-propylsulfonyl-1,3,4-thiadiazole-2-carboxylic acid-propylamide]
The “% activity” value of the first is higher: 87% for the first, 80% for the second.

For `CCC[S+]([O-])c1nnc(C(=O)N(C)C)s1` (stereo not drawn) [5-propylsulfinyl-1,3,4-thiadiazole-2-carboxylic acid-dimethylamide], the “% activity” value was 80%.
